The results in this text go back to patent US20230331803A1, “CO-AGONISTS OF THE GLP-1 AND AMYLIN RECEPTORS” (priority 2020, published 2023).

Read-outs that look alike come from different tables or passages of the source. Starred links: 1 amine or outer side, 2 acyl side, 3 side chain; linkers in the order of their positions; H or OH if unused. Non-standard residues stand in square brackets, D forms with d. Groups on a side chain read outwards from the residue. *: point of attachment. Decanoyl(10-(4-HOOC-PhO)) = O=C(O)c1ccc(OCCCCCCCCCC(=O)*)cc1; C20 diacid = O=C(O)CCCCCCCCCCCCCCCCCCC(=O)*; C16 diacid = O=C(O)CCCCCCCCCCCCCCC(=O)*; γGlu = O=C(O)[C@H](CCC(=O)[*:2])N[*:1]; Trx = NC[C@H]1CC[C@H](C(=O)O)CC1; AEEA = NCCOCCOCC(=O)O; Aib = CC(C)(N)C(=O)O

Usually EC50 stands for the concentration that produces a half-maximal response. One may read the Tmax as the time at which the peak concentration occurs.

Data set [1] deals with T1, human amylin receptor (hAmyR3) (Homo sapiens, UniProt O60896+P30988).
T1 construct: host or cells: BHK cells (Hollex-1 line: human calcitonin receptor (a) + CRE-Luc), further transfected with human RAMP3
Nature of the data set: Human amylin receptor in vitro potency assay (CRE-luciferase reporter, BHK cells).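 Also: BHK cells expressing human calcitonin receptor plus RAMP3 (amylin-3 receptor) with a CRE-luciferase reporter, agonist activity read as luminescence from cAMP-driven transcription, 7-point serial dilutions.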 The format is cell-based. Background: In a reporter assay the amount or activity of a reporter protein is the signal.

The target in a further data set is T2, human GLP-1 receptor (Homo sapiens, UniProt P43220).
T2 construct: expressed in transfected cells; host or cells: BHK (Baby Hamster Kidney) cells, clone BHK 467-12A KZ-10, stably transfected, with CRE-luciferase reporter
Nature of the data set: Human GLP-1 receptor in vitro potency assay (CRE-luciferase reporter, BHK cells). It is filed as cell-based.

The test system of a further data set is Sprague Dawley (SD) rats. Nature of the data set: Acute food intake in ad libitum fed rats after a single subcutaneous administration.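 Also: food intake monitored in the HM2 system, three rats per cage kept on a reversed light cycle, with food and water freely available after the subcutaneous dose.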 The settings on record: Table 6a, rat, single administration. The format is in vivo, rat.
Data set [2] in a line: Pharmacokinetic studies in Beagle dogs after oral administration of SNAC-based tablets. To be noted: for Tmax / half-life: male, Beagle. The format is in vivo. Here is the method:
To be able to evaluate oral exposure following tablet dosing, tablet compositions comprising the test substance and SNAC (sodium N-(8-(2-hydroxybenzoyl)amino)caprylate) were prepared by mixing test substance with roller compacted SNAC and magnesium stearate as, e.g., described in WO 2019/149880. The amount of SNAC in the tablet composition was 100-300 mg, the amount of magnesium stearate in the tablet composition was 7.7 mg, and the target amount of each test substance in the tablet composition was 3-4 mg.
Pharmacokinetic (PK) studies in Beagle dogs were conducted to determine the exposure of the GLP-1 receptor-amylin receptor co-agonist after peroral administration.
For the pharmacokinetic studies male Beagle dogs were used, 2-7, or 1 to 5, years of age and weighing approximately 10-15, such as 10-12, kg at the start of the studies. The dogs were group housed in pens (12 hours light: 12 hours dark),and fed individually and restrictedly once daily with Royal Canin Medium Adult dog (Royal Canin Products, China Branch, or Brogaarden A/S, Denmark). Exercise and group social were permitted daily, whenever possible. The dogs were used for repeated pharmacokinetic studies with a suitable wash-out period between successive dosing. An appropriate acclimatisation period was given prior to initiation of the first pharmacokinetic study. All handling, dosing and blood sampling of the animals were performed by trained and skilled staff. Before the studies the dogs were fasted overnight and from 0 to 4 h after dosing. Besides, the dogs were restricted to water 1 hour before dosing until 4 hours after dosing, but otherwise have ad libitum access to water during the whole period.
The tablets used for the p.o. studies described herein were immediate release SNAC-based tablets dosed orally.
The tablets were administered in the following manner: 10 min prior to tablet administration the dogs may be dosed subcutaneously with approximately 3 nmol/kg of SEQ ID NO: 237, tablets were placed in the back of the mouth of the dog to prevent chewing. The mouth was then closed, and 10 mL of tap water was given by a syringe or gavage to facilitate swallowing of the tablet.
Blood was sampled at predefined time points for up till 240 hours, such as up till 10 hr, post dosing to adequately cover the full plasma concentration-time absorption profile of the GLP-1 agonist.
For each blood sampling time point approximately 0.8 mL of whole blood was collected in a 1.5 mL EDTA coated tube, and the tube was gently turned to allowing mixing of the sample with the EDTA. Blood samples (for example 0.8 mL) were collected in EDTA buffer (8 mM) and then centrifuged at 4° C. and 2000 G for 10 minutes. Plasma was pipetted into Micronic tubes on dry ice, and kept at -20° C. until analysis.
Blood samples were taken as appropriate, for example from a venflon in the cephalic vein in the front leg for the first 2 hours and then with syringe from the jugular vein for the rest of the time points (the first few drops were allowed to drain from the venflon to avoid heparin saline from the venflon in the sample).
Plasma concentration of the GLP-1 receptor-amylin receptor co-agonists were determined using LCMS. Individual plasma concentration-time profiles were analysed by a non-compartmental model in WinNonlin v. 5.0 or Phoenix v. 6.2 or 6.3 (Pharsight Inc., Mountain View, CA, USA), or other relevant software for PK analysis.
The individual plasma concentration-time profiles were analysed by non-compartmental analysis (NCA).

The mark [3] stands for this setting: dogs, oral administration (tablet).
[4] abbreviates: Table 4a, BHK hAmyR3/CRE-Luc cells, 3 hours, read-out: Human AmyR3 potency [EC50 (pM)].
Where [5] appears, read: Table 4a, BHK cells expressing human GLP-1R, CRE-Luc, 3 hours, read-out: Human GLP-1R potency [EC50 (pM)].

T1 sequence (P30988 25-474): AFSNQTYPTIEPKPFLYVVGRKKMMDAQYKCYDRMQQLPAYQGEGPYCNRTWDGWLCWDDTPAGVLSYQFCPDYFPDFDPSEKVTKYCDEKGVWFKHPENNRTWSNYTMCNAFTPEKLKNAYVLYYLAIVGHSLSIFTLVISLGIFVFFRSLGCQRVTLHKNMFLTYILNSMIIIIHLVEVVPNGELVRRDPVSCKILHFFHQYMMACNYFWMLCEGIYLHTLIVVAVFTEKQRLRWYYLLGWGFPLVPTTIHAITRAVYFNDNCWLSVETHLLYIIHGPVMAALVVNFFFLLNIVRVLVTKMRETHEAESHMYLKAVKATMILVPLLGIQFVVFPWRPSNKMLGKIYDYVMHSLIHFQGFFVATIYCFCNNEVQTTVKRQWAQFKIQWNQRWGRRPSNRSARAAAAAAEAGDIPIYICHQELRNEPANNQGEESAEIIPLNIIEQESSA
T1 sequence (O60896 24-148): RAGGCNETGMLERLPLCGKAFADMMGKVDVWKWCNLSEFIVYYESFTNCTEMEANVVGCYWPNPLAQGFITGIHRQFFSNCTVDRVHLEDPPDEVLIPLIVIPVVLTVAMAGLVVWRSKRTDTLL
T2 sequence (P43220 24-463): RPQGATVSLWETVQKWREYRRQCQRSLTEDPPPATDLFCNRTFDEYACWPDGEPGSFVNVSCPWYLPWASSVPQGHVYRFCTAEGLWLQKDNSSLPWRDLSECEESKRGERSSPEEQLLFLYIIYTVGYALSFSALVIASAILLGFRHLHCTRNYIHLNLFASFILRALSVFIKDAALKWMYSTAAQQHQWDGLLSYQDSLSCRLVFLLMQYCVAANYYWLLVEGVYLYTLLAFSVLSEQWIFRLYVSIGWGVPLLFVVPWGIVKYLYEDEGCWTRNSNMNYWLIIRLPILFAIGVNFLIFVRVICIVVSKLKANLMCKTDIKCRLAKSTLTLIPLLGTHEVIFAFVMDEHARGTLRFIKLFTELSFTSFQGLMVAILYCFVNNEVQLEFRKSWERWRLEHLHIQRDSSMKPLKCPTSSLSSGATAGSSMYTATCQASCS

Turning to “HWEGTFTSDVSSYLEEQAARK([AEEA-AEEA-γGlu-Decanoyl(10-(4-HOOC-PhO))])FIEWLVRGK([AEEA-AEEA-γGlu-Decanoyl(10-(4-HOOC-PhO))])GEGGGGGEASELSTAALGRLSAELHELATLPRTETGSGSP-NH2 [Compound 0100]”, the 50% effective concentration (EC50) in data set [1] amounted to 30.4 pM; at human GLP-1 receptor, 6.8 pM. The “Food intake relative to vehicle (%) 0-24 hr, 10 nmol/kg” value with Sprague Dawley (SD) rats (0-24 hr) is listed as 85%. For the same substance, the “Food intake relative to vehicle (%) 24-48 hr, 10 nmol/kg” value in the data set on Sprague Dawley (SD) rats (24-48 hr) is on record as 86%.

In turn, “H-HWEGTFTSDVSSYLEEQAAREFIEWLVRGK([AEEA-AEEA-γGlu-Decanoyl(10-(4-HOOC-PhO))])GEGGGGGASELSTAALGRLSK([AEEA-AEEA-γGlu-Decanoyl(10-(4-HOOC-PhO))])ELHELATLPRTETGSGSP-NH2 [Compound 0233]” gave an EC50 in data set [1] of 182 pM. In addition, the response at human GLP-1 receptor was half-maximal at 46.4 pM (EC50). Moreover, in data set [2] (setting [3]), the “AUC/D” value stood at 8.43 kg·h/L and the “Cmax/D” value was 0.3 kg/L. Further, the Tmax in data set [2] (dog, in vivo, dogs, oral administration (tablet), read-out: Tmax) was found to be 1.5 h. In addition, in data set [2] (dog, in vivo, dogs, oral administration (tablet), read-out: T½ (converted)), the half-life is 43 h.

Regarding “H-H[Aib]EGTFTSDVSK([AEEA-AEEA-γGlu-C16 diacid])YLEEQAARK([AEEA-AEEA-γGlu-C16 diacid])FIAWLVRGRQEGGGGGASELSTAALGRLSAELHELATLPRTETGSGSP-NH2 [Compound 0575]”, the EC50 in data set [1] (setting [4]) worked out at 8.3 pM. Moreover, at human GLP-1 receptor (setting [5]), the EC50 is 5.6 pM. Besides, in data set [2] (dog, in vivo, po), the “AUC/D” value was found to be 27.60 kg·h/L and the “Cmax/D” value came to 0.34 kg/L. For the same substance, the Tmax in data set [2] (dog, in vivo, po, Tmax (hr)) turned out to be 1.5 h. For the same substance, the half-life in data set [2] (dog, in vivo, po, T½ (hr)) is 91 h.

Consider “H-H[Aib]EGTFTSDK([AEEA-AEEA-γGlu-C16 diacid])SSYLEEQAAREFIAWLVRGRGGGGGASELSTAALGRLSK([AEEA-AEEA-γGlu-C16 diacid])ELHELATLPRTETGSGSP-NH2 [Compound 0292]”, for which, in data set [1] (setting [4]), the 50% effective concentration (EC50) stood at 33.8 pM. The EC50 at human GLP-1 receptor (setting [5]) worked out at 12 pM. Also, in data set [2] (dog, in vivo, po), the “AUC/D” value worked out at 65.29 kg·h/L and the “Cmax/D” value was 0.72 kg/L. Besides, in data set [2] (dog, in vivo, po, Tmax (hr)), the Tmax was 2 h. The same substance showed a half-life in data set [2] (dog, in vivo, po, T½ (hr)) of 110 h.

For the substance “H-H[Aib]EGTFTSDK([AEEA-AEEA-γGlu-C16 diacid])SSYLEEQAAREFIAWLVRGRGGGGGEASELSTAALGRLSAELHK([AEEA-AEEA-γGlu-C16 diacid])LATLPRTETGSGSP-NH2 [Compound 0259]”, the EC50 in data set [1] (setting [4]) was determined as 12 pM. In addition, the concentration for a half-maximal effect (EC50) on human GLP-1 receptor (setting [5]) came to 15.8 pM. Besides, in data set [2] (dog, in vivo, po), the “AUC/D” value turned out to be 31.73 kg·h/L and the “Cmax/D” value is 0.48 kg/L. For the same substance, the Tmax in data set [2] (dog, in vivo, po, Tmax (hr)) is 1.5 h. The half-life in data set [2] (dog, in vivo, po, T½ (hr)) was 97 h.

With “H-H[Aib]EGTFTSDVSK([AEEA-AEEA-γGlu-C16 diacid])YLEEQAARK([AEEA-AEEA-γGlu-C16 diacid])FIEWLVRGRGEGGGGGASELSTAALGRLSAELHELATLPRTETGSGSP-NH2 [Compound 0576]”, the EC50 in data set [1] (setting [4]) turned out to be 10.1 pM. In addition, on human GLP-1 receptor (setting [5]), the EC50 stood at 2.9 pM. For the same substance, in data set [2] (dog, in vivo, po), the “AUC/D” value worked out at 28.20 kg·h/L and the “Cmax/D” value came out at 0.34 kg/L. Besides, the Tmax in data set [2] (dog, in vivo, po, Tmax (hr)) amounted to 1.3 h. In data set [2] (dog, in vivo, po, T½ (hr)), this substance had a half-life of 94 h.

As for “H-H[Aib]EGTFTSDVSSYLEEQAARK([AEEA-AEEA-γGlu-C20 diacid])FIAWLVRGGASELSTAALGRLSAELHELATLPRTETGSGSP-NH2 [Compound 0580]”, the concentration for a half-maximal effect (EC50) in data set [1] (setting [4]) was determined as 9.3 pM; on human GLP-1 receptor (setting [5]) it was 7.4 pM. Further, the “AUC/D” value in data set [2] (dog, in vivo, po) came to 12.77 kg·h/L. Besides, the “Cmax/D” value in data set [2] (dog, in vivo, po) is reported as 0.38 kg/L. The Tmax in data set [2] (dog, in vivo, po, Tmax (hr)) came out at 2 h. The same substance had a half-life in data set [2] (dog, in vivo, po, T½ (hr)) of 39 h.

On to “H-H[Aib]EGTFTSDVSSYLEGQAAREFIAWLVRGRGQEPK([AEEA-AEEA-γGlu-Trx-C20 diacid])GQAPEASELSTAALGRLSAELHELATLPRTETGSGSP-NH2 [Compound 0539]”, for which, in data set [1] (setting [4]), the EC50 came to 12.1 pM. Moreover, at human GLP-1 receptor (setting [5]), the EC50 was 5 pM. In data set [2] (dog, in vivo, po), the “AUC/D” value stood at 8.71 kg·h/L and the “Cmax/D” value was 0.22 kg/L. Further, the Tmax in data set [2] (dog, in vivo, po, Tmax (hr)) is 3 h. The half-life in data set [2] (dog, in vivo, po, T½ (hr)) is 30 h.
